Assay results reported in patent US20210008012A1, “NOVEL APPLICATIONS OF DISULFIRAM AND DERIVATIVES THEREOF” (GENEHEAL BIOTECHNOLOGY CO., LTD., priority 2017, published 2021).

System: PAICS
Experiment: Animal experiments: inhibition of SAICAR accumulation
Assay type: in vivo
Conditions: "can reach"
Source text: By inhibiting the activity of PAICS, the accumulation of toxic compound […] is reduced, which proves that the compound disulfiram can effectively treat rare disease ADSL deficiency.

For `CCN(CC)C(=S)SSC(=S)N(CC)CC` [disulfiram, Disulfiram], the “inhibition ratio against SAICAR accumulation” value was 87.11%.
